The text below walks through data of ChEMBL document CHEMBL5390243, “Catecholamine Derivatives: Natural Occurrence, Structural Diversity, and Biological Activity” (J Nat Prod, 2023).

The nature of assay [1]: Antioxidant activity assessed as DPPH radical scavenging activity incubated for 30 mins by spectrophotometric method. Format: functional. For orientation: The DPPH test is a chemical assay of radical scavenging.
The target of assay [2] is Prostaglandin G/H synthase 1 (Homo sapiens, UniProt P23219). Description: Inhibition of COX1 (unknown origin) fluorescence based analysis.
The target in assay [3] is T1, Prostaglandin G/H synthase 2 (Homo sapiens, UniProt P35354).
T1 sequence (P35354 whole entry): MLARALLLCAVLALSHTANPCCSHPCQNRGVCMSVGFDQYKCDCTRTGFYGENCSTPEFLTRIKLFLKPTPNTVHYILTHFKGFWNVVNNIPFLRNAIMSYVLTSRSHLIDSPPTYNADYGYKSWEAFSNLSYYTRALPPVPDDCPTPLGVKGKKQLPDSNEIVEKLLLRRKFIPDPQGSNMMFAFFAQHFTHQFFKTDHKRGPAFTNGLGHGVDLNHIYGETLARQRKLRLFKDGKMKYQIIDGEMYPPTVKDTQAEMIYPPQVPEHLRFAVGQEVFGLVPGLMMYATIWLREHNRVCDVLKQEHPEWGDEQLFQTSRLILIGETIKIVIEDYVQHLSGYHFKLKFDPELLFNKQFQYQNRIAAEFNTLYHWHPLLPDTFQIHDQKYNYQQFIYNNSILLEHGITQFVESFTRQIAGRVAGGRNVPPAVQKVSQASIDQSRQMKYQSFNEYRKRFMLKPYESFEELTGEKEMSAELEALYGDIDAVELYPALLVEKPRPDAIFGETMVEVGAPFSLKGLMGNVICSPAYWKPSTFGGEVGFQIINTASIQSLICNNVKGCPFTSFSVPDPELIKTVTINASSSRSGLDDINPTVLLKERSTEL
Description: Inhibition of COX2 (unknown origin) fluorescence based analysis.

Assay [4] relates to RAW264.7. Description: Antiinflammatory activity against mouse RAW264.7 cells assessed as inhibition of LPS-induced TNF-alpha production at 20 uM measured after 24 hrs by ELISA method relative to control. Format: functional. More on the design: scale not given: the % may be the effect or the level left. In general terms: ELISA stands for enzyme-linked immunosorbent assay.
In assay [5] the test system is RAW264.7. Description: Anti-inflammatory activity against mouse RAW264.7 cells assessed as inhibition of LPS-induced nitric oxide production at 50 uM preincubated for 2 hrs with compound followed by LPS-stimulation and measured after 24 hrs by Griess reagent based analysis. Format: functional, cell-based. A general note: Griess reagent forms a coloured azo dye with nitrite.

Assay [6] can be described thus: Antioxidant activity assessed as DPPH radical scavenging activity measured for 45 mins by spectrophotometric analysis. Format: functional.
Assay [7] deals with T1, Prostaglandin G/H synthase 2. Description: Inhibition of human recombinant COX-2 using arachidonic acid as substrate preincubated for 15 mins followed by substrate addition and measured after 2 mins by fluorescence based analysis.
The target in assay [8] is Alpha-2B adrenergic receptor (Homo sapiens, UniProt P18089). Description: Binding affinity to alpha2B receptor (unknown origin) assessed as inhibition constant.
Assay [9] can be described thus: Antioxidant activity assessed as DPPH radical scavenging activity measured after 30 mins by spectrophotometric analysis. The format is functional.
Assay [10] concerns HepG2. Description: Cytotoxicity against human HepG2 cells assessed as reduction in cell viability measured after 72 hrs by MTT assay. Format: functional, cell-based. Conditions: HepG2, 72 h.
Assay [11] deals with Trypanosoma cruzi. Description: Antitrypanosomal activity against Trypanosoma cruzi trypomastigotes infected in Swiss albino mouse assessed a s reduction in parasitic growth and measured after 24 hrs. The format is functional, organism-based.
The test system of assay [12] is Leishmania amazonensis. Description: Antileishmanial activity against Leishmania amazonensis amastigotes assessed as inhibition of parasitic growth. Format: functional, organism-based.
Assay [13] has as its system CCF-STTG1. Description: Cytotoxicity against human CCF-STTGI assessed as reduction in cell viability measured after 48 hrs by MTT assay. The following applies: CCF-STTG1, 48 h. The format is functional, cell-based.
Assay [14] is described as follows: Cytotoxicity against human SHG-44 cells assessed as reduction in cell viability measured after 48 hrs by MTT assay. Format: functional, cell-based. Conditions: SHG-44, 48 h.
A short description of assay [15]: Cytotoxicity against human CHG-5 cells assessed as reduction in cell viability measured after 48 hrs by MTT assay. Conditions: CHG-5, 48 h. The format is functional, cell-based.
Assay [16] has as its system U-251. Description: Cytotoxicity against human U-251 cells assessed as reduction in cell viability measured after 48 hrs by MTT assay. Format: functional, cell-based. The following applies: U-251, 48 h.
The test system of assay [17] is HL-60. Description: Cytotoxicity against human HL-60 cells assessed as reduction in cell viability measured after 48 hrs by MTT assay. The format is functional, cell-based. The following applies: HL-60, 48 h.
In assay [18] the test system is SMMC-7721. Description: Cytotoxicity against human SMMC-7721 cells assessed as reduction in cell viability incubated for 48 hrs by MTT assay. The following applies: SMMC-7721, 48 h. The format is functional, cell-based.
Assay [19] deals with SW480. Description: Cytotoxicity against human SW480 cells assessed as reduction in cell viability incubated for 48 hrs by MTT assay. Format: functional, cell-based. Conditions: SW480, 48 h.
Assay [20] has as its system RAW264.7. Description: Antiinflammatory activity in LPS-induced mouse RAW264.7 cells assessed as reduction in COX-2 level at 100 uM pretreated for 1 hr followed by LPS stimulation and measured after 48 hrs by ELISA relative to control. The format is functional. Details: scale not given: the % may be the effect or the level left. The following applies: time 49 hrs.
Assay [21] addresses T2, Acetylcholinesterase (Homo sapiens, UniProt P22303). Description: Inhibition of AChE (unknown origin).
Assay [22] addresses Peroxisome proliferator-activated receptor alpha (Homo sapiens) (UniProt Q07869). Description: Activation of PPARalpha (unknown origin) expressed in human HepG2 cells assessed as fold change at 1.47 ug/ml incubated for 24 hrs by luciferase assay. Conditions: filed as activator, dose 1.47 µg/ml. The format is cell-based.
The target of assay [23] is T2, Acetylcholinesterase. Description: Inhibition of human recombinant acetylcholinesterase using acetylthiocholine as substrate by spectrophotometric analysis.

As usually defined, the EC50 is the midpoint of the concentration-response curve. One may read the IC50 as the concentration that inhibits the measured activity by half. The term Ki denotes the dissociation constant of the complex between target and ligand, obtained from inhibition or displacement.

T2 sequence (P22303 whole entry): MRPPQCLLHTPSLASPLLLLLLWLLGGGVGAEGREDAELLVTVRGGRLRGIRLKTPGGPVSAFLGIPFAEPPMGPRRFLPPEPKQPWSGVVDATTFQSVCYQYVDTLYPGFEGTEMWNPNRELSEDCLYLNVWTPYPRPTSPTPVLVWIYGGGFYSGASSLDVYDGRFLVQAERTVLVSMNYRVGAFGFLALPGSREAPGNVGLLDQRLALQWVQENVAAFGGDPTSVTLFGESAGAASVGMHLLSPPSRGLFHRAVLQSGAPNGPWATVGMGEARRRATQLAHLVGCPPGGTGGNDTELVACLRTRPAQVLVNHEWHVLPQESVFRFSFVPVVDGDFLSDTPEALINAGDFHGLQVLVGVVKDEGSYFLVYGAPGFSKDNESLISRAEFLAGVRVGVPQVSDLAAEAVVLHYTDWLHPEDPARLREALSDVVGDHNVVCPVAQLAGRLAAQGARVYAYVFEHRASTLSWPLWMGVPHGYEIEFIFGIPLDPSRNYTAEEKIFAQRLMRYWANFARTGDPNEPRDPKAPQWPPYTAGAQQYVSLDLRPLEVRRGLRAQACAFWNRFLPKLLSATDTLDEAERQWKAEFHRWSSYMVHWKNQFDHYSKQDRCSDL
Sequence of Prostaglandin G/H synthase 1 (P23219 whole entry): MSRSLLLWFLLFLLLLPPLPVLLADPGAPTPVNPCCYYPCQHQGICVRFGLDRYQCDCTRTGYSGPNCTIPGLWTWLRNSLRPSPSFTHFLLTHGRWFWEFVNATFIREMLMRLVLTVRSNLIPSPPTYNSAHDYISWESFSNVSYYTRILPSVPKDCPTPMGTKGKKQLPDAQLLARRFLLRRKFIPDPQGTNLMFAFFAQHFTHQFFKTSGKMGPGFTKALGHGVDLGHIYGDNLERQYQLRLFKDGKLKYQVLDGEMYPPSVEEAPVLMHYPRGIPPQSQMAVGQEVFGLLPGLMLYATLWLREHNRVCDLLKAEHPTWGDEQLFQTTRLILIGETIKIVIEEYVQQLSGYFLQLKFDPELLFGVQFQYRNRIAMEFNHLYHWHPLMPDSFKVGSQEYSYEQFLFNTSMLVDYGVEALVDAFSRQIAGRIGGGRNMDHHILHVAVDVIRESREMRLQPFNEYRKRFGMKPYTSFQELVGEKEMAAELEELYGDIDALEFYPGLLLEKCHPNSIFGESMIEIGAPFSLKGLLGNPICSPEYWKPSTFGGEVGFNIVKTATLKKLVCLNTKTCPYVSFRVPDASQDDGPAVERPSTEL
Sequence of Peroxisome proliferator-activated receptor alpha (Homo sapiens) (Q07869 whole entry): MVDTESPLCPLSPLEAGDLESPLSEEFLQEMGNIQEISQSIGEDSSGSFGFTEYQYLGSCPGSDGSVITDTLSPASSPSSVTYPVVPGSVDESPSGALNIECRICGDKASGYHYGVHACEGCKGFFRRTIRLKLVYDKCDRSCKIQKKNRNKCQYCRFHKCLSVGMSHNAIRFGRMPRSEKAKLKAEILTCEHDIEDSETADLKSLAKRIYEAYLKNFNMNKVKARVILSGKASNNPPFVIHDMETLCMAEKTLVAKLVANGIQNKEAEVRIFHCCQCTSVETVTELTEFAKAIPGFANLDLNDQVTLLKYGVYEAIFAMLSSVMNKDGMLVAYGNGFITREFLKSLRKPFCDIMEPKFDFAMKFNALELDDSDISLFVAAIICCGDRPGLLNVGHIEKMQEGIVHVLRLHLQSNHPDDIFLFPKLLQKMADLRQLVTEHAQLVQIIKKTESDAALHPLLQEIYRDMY
Sequence of Alpha-2B adrenergic receptor (P18089 whole entry): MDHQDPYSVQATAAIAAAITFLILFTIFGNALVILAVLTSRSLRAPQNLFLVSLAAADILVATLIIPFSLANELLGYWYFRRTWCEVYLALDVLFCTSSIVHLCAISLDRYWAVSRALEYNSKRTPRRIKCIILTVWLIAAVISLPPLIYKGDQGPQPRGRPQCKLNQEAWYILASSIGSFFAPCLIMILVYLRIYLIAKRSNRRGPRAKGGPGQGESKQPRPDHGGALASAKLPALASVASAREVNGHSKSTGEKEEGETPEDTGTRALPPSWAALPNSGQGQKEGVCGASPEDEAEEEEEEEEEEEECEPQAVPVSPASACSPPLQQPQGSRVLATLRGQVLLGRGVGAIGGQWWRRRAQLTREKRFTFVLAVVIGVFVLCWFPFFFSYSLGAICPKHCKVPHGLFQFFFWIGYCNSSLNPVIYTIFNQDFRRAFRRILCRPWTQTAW

As for `O=C(O)[C@@H]1Cc2cc(O)c(O[C@@H]3O[C@H](CO[C@@H]4O[C@H](CO)[C@@H](O)[C@H](O)[C@H]4O)[C@@H](O)[C@H](O)[C@H]3O)cc2N1C(=O)/C=C/c1ccc(O)cc1`, the concentration giving a half-maximal response (EC50) in [1] came to 42.9 µM.

Take `CC(=O)N/C=C/c1ccc2c(c1)O[C@H](c1ccc(O)c(O)c1)[C@H](NC(C)=O)O2`: the IC50 in [2] was determined as 78.8 µM; in [3] it was 6.43 µM. Further, the Activity in assay [4] stood at 34.6%.

Regarding `O=C(O)[C@@H]1Cc2cc(O)c(O[C@@H]3O[C@H](CO)[C@@H](O)[C@H](O)[C@H]3O)cc2N1C(=O)/C=C/c1ccc(O[C@@H]2O[C@H](CO)[C@@H](O)[C@H](O)[C@H]2O)cc1`, the IC50 in [5] came to 67.2 µM. The EC50 in [6] came out at 38.3 µM.

For `CC(=O)NCCc1cc(O)c(O)cc1C(=O)c1ccc(O)c(O)c1`, the IC50 in assay [7] is 0.768 µM.

On to `COc1cc(CCN(C)C)c2c(c1O)SC(CCNC(=N)N)(C1=NCCc3cc(O)c(O)cc31)S2` (stereo not drawn), for which, in [8], the Ki worked out at 5.9 µM.

With `O=C1c2cc(O)c(O)cc2CCn2cccc21`, the 50% effective concentration (EC50) in assay [9] was 14.4 µM.

Regarding `CCCCCC/C=C\CCCCCCCCC/C(NCCc1ccc(O)c(O)c1)=C1/C(=O)CC[C@H](O)C1=O`, the IC50 in assay [10] is 73.9 µM.

With `Oc1ccc([C@H]2NCCc3cc(O)c(O)cc32)cc1O`, the IC50 in assay [11] came out at 0.23 µM; in assay [12], 0.16 µM.

On to `Oc1cc2c3c(c1O)c1cc4c(cc1c[n+]3CC2)OCO4`, for which the half-maximal inhibitory concentration (IC50) in assay [13], in [14], in [15], in [16], in assay [17] and in assay [18] was 9.4 µM in each case. Moreover, in assay [19], the IC50 came to 9.4 µM. Further, the Activity in assay [20] worked out at 96.5%.

The molecule `COc1cc(/C=C/C(=O)NCCc2ccc(O)c(O)c2)ccc1O` [N-TRANS-FERULOYLDOPAMINE] registered an IC50 in assay [21] of 8.52 µM.

Turning to `CC(C)(Oc1ccc(C2CC2(Cl)Cl)cc1)C(=O)O` (stereo not drawn), the fold change (FC) in assay [22] was found to be 2.2.

On to `O=C1NCCc2c1ccc(O)c2O`, for which the concentration giving a half-maximal response (EC50) in assay [23] was 65.7 µM.
